Here are results for twelve compounds from US20260070945A1, “MACROCYCLIC IMMUNOMODULATORS” (Bristol-Myers Squibb Company, priority 2022, published 2026).

*1 amine or outer side, *2 acyl side, *3 side chain or, on linkers, in order; H or OH if unused. Where a SMILES comes first, the peptide text is derived from it. Bridges are numbered along the chain shown (N, C = ends). [ ]: non-standard residue; d: D form. The star is where a group is joined. ξ: configuration not given here. Phe(3-CF3) = N[C@@H](Cc1cccc(C(F)(F)F)c1)C(=O)O; Phe(4-COOH) = N[C@@H](Cc1ccc(C(=O)O)cc1)C(=O)O; Bip = N[C@@H](Cc1ccc(-c2ccccc2)cc1)C(=O)O; Phe(3-Me) = Cc1cccc(C[C@H](N)C(=O)O)c1; γGlu = O=C(O)[C@H](CCC(=O)[*:2])N[*:1]; Abu(3S-NH2) = C[C@H](N)[C@H](N)C(=O)O; NH(CH2)12COOH = O=C(O)CCCCCCCCCCCCN*; Val(3-OH) = CC(C)(O)[C@H](N)C(=O)O; aIle = CC[C@@H](C)[C@H](N)C(=O)O; 4Pal = N[C@@H](Cc1ccncc1)C(=O)O; Cha = N[C@@H](CC1CCCCC1)C(=O)O; Cit = NC(=O)NCCC[C@H](N)C(=O)O; Ile(3ξ) = CCC(C)[C@H](N)C(=O)O; Thr(3ξ) = CC(O)[C@H](N)C(=O)O; Carboxymethyl = O=C(O)C*; NMeA = CN[C@@H](C)C(=O)O; Orn = NCCC[C@H](N)C(=O)O; Aun = NCCCCCCCCCCC(=O)O; Dab = NCC[C@H](N)C(=O)O; Dap = NC[C@H](N)C(=O)O; AEEA = NCCOCCOCC(=O)O; Ac3c = NC1(C(=O)O)CC1

The target in one experiment is T1, PD-1/PD-L1 interaction (PE-labeled human PD-L1-Ig binding to Jurkat cell line over-expressing human PD-1) (Homo sapiens, UniProt Q15116).
T1 construct: expressed in transfected cells; host or cells: Jurkat
T1 sequence (Q15116 25-288): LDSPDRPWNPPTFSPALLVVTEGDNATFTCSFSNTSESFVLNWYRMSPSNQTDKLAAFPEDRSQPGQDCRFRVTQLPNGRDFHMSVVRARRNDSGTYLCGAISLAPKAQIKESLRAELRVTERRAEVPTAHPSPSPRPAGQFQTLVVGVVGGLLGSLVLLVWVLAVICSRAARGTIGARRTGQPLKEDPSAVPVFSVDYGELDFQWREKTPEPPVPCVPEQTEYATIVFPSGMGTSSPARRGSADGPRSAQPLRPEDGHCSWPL
The experiment is described as follows: Jurkat-PD-1 Cell Binding High-Content Screening Assay (CBA). The note with it: Jurkat-hPD-1 cells, PE-labeled PD-L1-Ig 20 nM final; read-out: Jurkat HPD1 PDL1 IC50. The gist of the method: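 Jurkat cells overexpressing human PD-1 (8×10^3/well, DMEM + 10% FCS) preincubated with compound 2 h at 37 °C, then PE-labelled human PD-L1-Ig (20 nM final) for 1 h. Cells fixed in paraformaldehyde with Hoechst 33342; bound PD-L1 quantified by high-content imaging.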
Regarding `CC(C)C[C@@H]1NC(=O)[C@H](Cc2c[nH]c3ccccc23)NC(=O)[C@H](CC(=O)O)NC(=O)[C@H](Cc2ccc(C(=O)O)cc2)NC(=O)[C@H](Cc2ccc(OCC(=O)O)cc2)NC(=O)CSC[C@@H](C(=O)N[C@@H](CN)C(=O)NCCCCCCCCCCC(=O)O)NC(=O)[C@H](CCCNC(N)=O)NC(=O)[C@H](C(C)C)NC(=O)[C@H](CC2CCCCC2)NC(=O)[C@H](CCN)NC(=O)[C@@H](CC(C)C)NC(=O)[C@H](C)N(C)C(=O)[C@H](C(C)C)NC(=O)[C@H](Cc2ccc(-c3ccccc3)cc2)NC1=O` [Example 1098] ({CH2CO}-Y(Carboxymethyl)[Phe(4-COOH)]DWL[Bip]V[NMeA][dL][Dab][Cha]V[Cit]C[Dap][Aun]-OH; thioether N-14), the IC50 (usually the concentration at which inhibition is half-maximal) worked out at 8.6 nM.
For `CC(=O)NCC[C@@H]1NC(=O)[C@H](C(C)(C)O)NC(=O)[C@H](CC2CCCCC2)NC(=O)[C@H](CCN)NC(=O)[C@@H](CC(C)C)NC(=O)[C@H](C)N(C)C(=O)[C@H](C(C)C)NC(=O)[C@H](Cc2ccc(-c3ccccc3)cc2)NC(=O)[C@H](CC(C)C)NC(=O)[C@H](Cc2c[nH]c3ccccc23)NC(=O)[C@H](CC(=O)O)NC(=O)[C@H](Cc2ccc(OCC(=O)O)cc2)NC(=O)[C@H](Cc2ccc(OCC(=O)O)cc2)NC(=O)CSC[C@@H](C(=O)NCCOCCOCC(=O)NCCCCCCCCCCC(=O)O)NC1=O` [Example 2447] ({CH2CO}-Y(Carboxymethyl)Y(Carboxymethyl)DWL[Bip]V[NMeA][dL][Dab][Cha][Val(3-OH)][Dab](Ac)C[AEEA][Aun]-OH; thioether N-14), the IC50 came out at 38.2 nM.
Regarding `CC(=O)NCCCC[C@@H]1NC(=O)[C@H](Cc2ccc(-c3ccccc3)cc2)NC(=O)[C@H](C(C)C)NC(=O)[C@H](Cc2cccc(C)c2)NC(=O)[C@H](CC(=O)O)NC(=O)[C@H](Cc2ccc(C(=O)O)cc2)NC(=O)[C@H](Cc2ccc(OCC(=O)O)cc2)NC(=O)CSC[C@@H](C(=O)NCCOCCOCC(=O)NCCCCCCCCCCC(=O)O)NC(=O)[C@H](CCCNC(N)=O)NC(=O)[C@H](C(C)C)NC(=O)[C@H](CC2CCCCC2)NC(=O)[C@H](CCN)NC(=O)[C@@H](CC(C)C)NC(=O)[C@H](C)N(C)C1=O` [Example 2295] ({CH2CO}-Y(Carboxymethyl)[Phe(4-COOH)]D[Phe(3-Me)]V[Bip]K(Ac)[NMeA][dL][Dab][Cha]V[Cit]C[AEEA][Aun]-OH; thioether N-14), the IC50 was 10.3 nM.
In the case of `CCC(C)[C@@H]1NC(=O)[C@H](Cc2ccc(-c3ccccc3)cc2)NC(=O)[C@H](CC(C)C)NC(=O)[C@H](Cc2c[nH]c3ccccc23)NC(=O)[C@H](CC(=O)O)NC(=O)[C@H](Cc2ccc(OCC(=O)O)cc2)NC(=O)[C@H](C(C)O)NC(=O)CSC[C@@H](C(=O)NCCOCCOCC(=O)N[C@@H](CCCN)C(=O)NCCCCCCCCCCC(=O)O)NC(=O)[C@H](CO)NC(=O)[C@H](C(C)C)NC(=O)[C@H](CC(C)C)NC(=O)[C@H](CC(N)=O)NC(=O)[C@@H](CC(C)C)NC(=O)[C@H](C)N(C)C1=O` (stereo partly drawn) [Example 2052] ({CH2CO}-[Thr(3ξ)]Y(Carboxymethyl)DWL[Bip][Ile(3ξ)][NMeA][dL]NLVSC[AEEA][Orn][Aun]-OH; thioether N-14), the IC50 turned out to be 79.1 nM.
As for `CC(C)C[C@@H]1NC(=O)[C@H](Cc2c[nH]c3ccccc23)NC(=O)[C@H](CC(=O)O)NC(=O)[C@H](Cc2ccc(OCC(=O)O)cc2)NC(=O)[C@H](Cc2ccc(OCC(=O)O)cc2)NC(=O)CSC[C@@H](C(=O)NC2(C(=O)NCCOCCOCC(=O)NCCCCCCCCCCC(=O)O)CC2)NC(=O)[C@H](CCCNC(=N)N)NC(=O)[C@H](C(C)C)NC(=O)[C@H](CC2CCCCC2)NC(=O)[C@H](CCN)NC(=O)[C@@H](CC(C)C)NC(=O)[C@H](C)N(C)C(=O)[C@H](C(C)C)NC(=O)[C@H](Cc2ccc(-c3ccccc3)cc2)NC1=O` [Example 1247] ({CH2CO}-Y(Carboxymethyl)Y(Carboxymethyl)DWL[Bip]V[NMeA][dL][Dab][Cha]VRC[Ac3c][AEEA][Aun]-OH; thioether N-14), the concentration for half-maximal inhibition (IC50) is 4.1 nM.
Consider `Cc1cccc(C[C@@H]2NC(=O)[C@H](CC(=O)O)NC(=O)[C@H](Cc3ccc(OCC(=O)O)cc3)NC(=O)[C@H](CC(N)=O)NC(=O)CSC[C@@H](C(=O)N[C@@H](CCN)C(=O)NCCCCCCCCCCC(=O)O)NC(=O)[C@H]([C@@H](C)O)NC(=O)[C@H](C(C)C)NC(=O)[C@H](CC3CCCCC3)NC(=O)[C@H](CCN)NC(=O)[C@@H](CC(C)C)NC(=O)[C@H](C)N(C)C(=O)[C@H](Cc3ccc(O)cc3)NC(=O)[C@H](Cc3ccc(-c4ccccc4)cc3)NC(=O)[C@H](C(C)C)NC2=O)c1` [Example 1322] ({CH2CO}-NY(Carboxymethyl)D[Phe(3-Me)]V[Bip]Y[NMeA][dL][Dab][Cha]VTC[Dab][Aun]-OH; thioether N-14), for which the IC50 is 19.7 nM.
The same measure, in the same setting: as for `CC(C)C[C@H]1NC(=O)[C@H](C)N(C)C(=O)[C@H](CCC(N)=O)NC(=O)[C@H](Cc2ccc(-c3ccccc3)cc2)NC(=O)[C@H](Cc2ccc(C(=O)O)cc2)NC(=O)[C@H](Cc2cccc(C(F)(F)F)c2)NC(=O)[C@H](CC(=O)O)NC(=O)[C@H](Cc2ccc(OCC(=O)O)cc2)NC(=O)[C@H]([C@H](C)N)NC(=O)CSC[C@@H](C(=O)N[C@@H](CCN)C(=O)NCCOCCOCC(=O)N[C@@H](CCC(=O)NCCOCCOCC(=O)NCCCCCCCCCCCCC(=O)O)C(=O)O)NC(=O)[C@H](CCC(=O)O)NC(=O)[C@H](C(C)C)NC(=O)[C@H](CC2CCCCC2)NC(=O)[C@H](CCN)NC1=O` [Example 1200] ({CH2CO}-[Abu(3S-NH2)]Y(Carboxymethyl)D[Phe(3-CF3)][Phe(4-COOH)][Bip]Q[NMeA][dL][Dab][Cha]VEC[Dab][AEEA][γGlu][AEEA]-{NH(CH2)12COOH}; thioether N-14), the figure is 28.1 nM; as for `CC[C@@H](C)[C@@H]1NC(=O)[C@H](Cc2ccc(-c3ccccc3)cc2)NC(=O)[C@H](C(C)C)NC(=O)[C@H](Cc2c[nH]c3ccccc23)NC(=O)[C@H](CC(=O)O)NC(=O)[C@H](Cc2ccc(O)cc2)NC(=O)[C@H](Cc2ccncc2)NC(=O)CSC[C@@H](C(=O)N[C@H](CCCCN)C(=O)NCCOCCOCC(=O)NCCCCCCCCCCC(=O)O)NC(=O)[C@H](CO)NC(=O)[C@H](C(C)C)NC(=O)[C@H](CC2CCCCC2)NC(=O)[C@H](CCN)NC(=O)[C@@H](CC(C)C)NC(=O)[C@H](C)N(C)C1=O` [Example 2023] ({CH2CO}-[4Pal]YDWV[Bip][aIle][NMeA][dL][Dab][Cha]VSC[dK][AEEA][Aun]-OH; thioether N-14), 47.4 nM.
Still for that read-out and setting: as for `Cc1cccc(C[C@@H]2NC(=O)[C@H](CC(=O)O)NC(=O)[C@H](Cc3ccc(C(=O)O)cc3)NC(=O)[C@H](Cc3ccc(OCC(=O)O)cc3)NC(=O)CSC[C@@H](C(=O)NCCOCCOCC(=O)NCCCCCCCCCCC(=O)O)NC(=O)[C@H](CCC(=O)O)NC(=O)[C@H](C(C)C)NC(=O)[C@H](CC3CCCCC3)NC(=O)[C@H](CCN)NC(=O)[C@@H](CC(C)C)NC(=O)[C@H](C)N(C)C(=O)[C@H](C(C)C)NC(=O)[C@H](Cc3ccc(-c4ccccc4)cc3)NC(=O)[C@H](CC(C)C)NC2=O)c1` [Example 2296] ({CH2CO}-Y(Carboxymethyl)[Phe(4-COOH)]D[Phe(3-Me)]L[Bip]V[NMeA][dL][Dab][Cha]VEC[AEEA][Aun]-OH; thioether N-14), the figure is 34.6 nM.
As for `Cc1cccc(C[C@@H]2NC(=O)[C@H](CC(=O)O)NC(=O)[C@H](Cc3ccc(C(=O)O)cc3)NC(=O)[C@H](Cc3ccncc3)NC(=O)CSC[C@@H](C(=O)N[C@@H](CCN)C(=O)NCCOCCOCC(=O)NCCCCCCCCCCCCC(=O)O)NC(=O)[C@H](CO)NC(=O)[C@H](C(C)(C)O)NC(=O)[C@H](CC3CCCCC3)NC(=O)[C@H](CCN)NC(=O)[C@@H](CC(C)C)NC(=O)[C@H](C)N(C)C(=O)[C@H](Cc3ccc(OCC(=O)O)cc3)NC(=O)[C@H](Cc3ccc(-c4ccccc4)cc3)NC(=O)[C@H](Cc3ccc(OCC(=O)O)cc3)NC2=O)c1` [Example 1434] ({CH2CO}-[4Pal][Phe(4-COOH)]D[Phe(3-Me)]Y(Carboxymethyl)[Bip]Y(Carboxymethyl)[NMeA][dL][Dab][Cha][Val(3-OH)]SC[Dab][AEEA]-{NH(CH2)12COOH}; thioether N-14), the IC50 was found to be 915 nM.
Still for that read-out and setting: as for `CC(C)C[C@@H]1NC(=O)[C@H](Cc2c[nH]c3ccccc23)NC(=O)[C@H](CC(=O)O)NC(=O)[C@H](Cc2ccc(O)cc2)NC(=O)[C@H](Cc2ccncc2)NC(=O)CSC[C@@H](C(=O)N[C@@H](CCCN)C(=O)NCCOCCOCC(=O)NCCCCCCCCCCC(=O)O)NC(=O)[C@H](CCCN)NC(=O)[C@H](C(C)C)NC(=O)[C@H](CC2CCCCC2)NC(=O)[C@H](CCN)NC(=O)[C@@H](CC(C)C)NC(=O)[C@H](C)N(C)C(=O)[C@H](C(C)C)NC(=O)[C@H](Cc2ccc(-c3ccccc3)cc2)NC1=O` [Example 2161] ({CH2CO}-[4Pal]YDWL[Bip]V[NMeA][dL][Dab][Cha]V[Orn]C[Orn][AEEA][Aun]-OH; thioether N-14), the figure is 122 nM.

The experiment is the same for the next values; noted with them: PE-labeled PD-L1-Ig 20 nM final, Jurkat-hPD-1 cells; read-out: Jurkat HPD1 PDL1 IC50.
For `CCC(C)[C@@H]1NC(=O)[C@H](Cc2ccc(-c3ccccc3)cc2)NC(=O)[C@H](C(C)C)NC(=O)[C@H](Cc2c[nH]c3ccccc23)NC(=O)[C@H](CC(=O)O)NC(=O)[C@H](Cc2ccc(C(=O)O)cc2)NC(=O)[C@H](Cc2cnc[nH]2)NC(=O)CSC[C@@H](C(=O)N[C@@H](CCN)C(=O)NCCOCCOCC(=O)NCCOCCOCC(=O)NCCCCCCCCCCC(=O)O)NC(=O)[C@H](C(C)O)NC(=O)[C@H](C(C)O)NC(=O)[C@H](CC2CCCCC2)NC(=O)[C@H](CCN)NC(=O)[C@@H](CC(C)C)NC(=O)[C@H](C)N(C)C1=O` (stereo partly drawn) [Example 2529] ({CH2CO}-H[Phe(4-COOH)]DWV[Bip][Ile(3ξ)][NMeA][dL][Dab][Cha][Thr(3ξ)][Thr(3ξ)]C[Dab][AEEA][AEEA][Aun]-OH; thioether N-14), the IC50 was determined as 4.4 nM.
